Tested on: anaesthetized rats
Experiment: Blood pressure and heart rate after slow intravenous administration in anaesthetized rats
Format: in vivo
Settings: for HR (beats/min) / MAP (mmHg): mean ± SEM, n=6; for maximal change in HR / maximal change in MAP: percent change from baseline
Experimental: The effects of 3-(1H-imidazol-4-ylmethyl)-indan-5-ol on blood pressure and heart rate after slow intravenous administration were studied in anaesthetized rats. Dexmedetomidine (Orion Corporation Orion Pharma, Finland), a specific α2-adrenoceptor agonist was studied as a reference compound.
Male Spraque-Dawley rats (B&K, Sweden), weighing 290-400 g, were anaesthetized with sodium pentobarbital (Mebunat® 60 mg/ml) 75 mg/kg i.p. The left femoral vein was cannulated (PE-50) for slow drug injections. The left femoral artery was cannulated (PE-60) and the mean arterial blood pressure (MAP) and heart rate (HR) were recorded continuously via a Micro MP-15 transducer connected to a Grass Model 7D Polygraph. Arterial pressure was sampled at a rate 150 samples/second and recorded on a Pinus PC computer using the software program AcqKnowledge version 3.5.3 and a MP100A data acquisition unit for analog/digital conversion (BIOPAC Systems, Inc.). Pulse waves of the blood pressure were used for displaying heart rate continuously. The body temperature (rectal) was kept constant at 37±0.5° C. by warming with a lamp above the animal's chest. Only rats with MAP of 73 mmHg or higher were used for the tests. After a stabilizing period of 10-20 min, 3-(1H-imidazol-4-ylmethyl)-indan-5-ol (1 and 3 μg/kg, as hydrochloride) or dexmedetomidine (3 and 10 μg/kg, as hydrochlorides) dose was given as slow intravenous injection (during 5 min) by an infusion pump (Perfusor® ED 2, B. Braun). The total injection volume was adjusted to 1 ml in each experimental group.

[1] = dose 3 μg/kg slow i.v. (during 5 min), time 0 min
[2] = dose 3 μg/kg slow i.v. (during 5 min), time 3 min
[3] = dose 3 μg/kg slow i.v. (during 5 min), time 5 min
[4] = dose 3 μg/kg slow i.v. (during 5 min), time 10 min
[5] = dose 3 μg/kg slow i.v. (during 5 min), time 20 min
[6] = dose 3 μg/kg slow i.v. (during 5 min), time 30 min
[7] = dose 10 μg/kg slow i.v. (during 5 min), time 0 min
[8] = dose 10 μg/kg slow i.v. (during 5 min), time 2 min
[9] = dose 10 μg/kg slow i.v. (during 5 min), time 5 min
[10] = dose 10 μg/kg slow i.v. (during 5 min), time 10 min
[11] = dose 10 μg/kg slow i.v. (during 5 min), time 20 min
[12] = dose 10 μg/kg slow i.v. (during 5 min), time 30 min
[13] = slow intravenous administration of 3 and 10 μg/kg
[14] = dose 1 μg/kg slow i.v. (during 5 min), time 0 min
[15] = dose 1 μg/kg slow i.v. (during 5 min), time 3 min
[16] = dose 1 μg/kg slow i.v. (during 5 min), time 5 min
[17] = dose 1 μg/kg slow i.v. (during 5 min), time 10 min
[18] = dose 1 μg/kg slow i.v. (during 5 min), time 20 min
[19] = dose 1 μg/kg slow i.v. (during 5 min), time 30 min
[20] = slow (during 5 minutes) i.v. dosing of 1 and 3 μg/kg

## Cc1cccc([C@H](C)c2cnc[nH]2)c1C [Dexmedetomidine, dexmedetomidine]
[1]
  HR (beats/min): 348 ± 12 beats/min
  MAP (mmHg): 89 ± 5 mmHg
[2]
  HR (beats/min): 310 ± 6 beats/min
  MAP (mmHg): 86 ± 5 mmHg
[3]
  HR (beats/min): 310 ± 5 beats/min
  MAP (mmHg): 79 ± 7 mmHg
[4]
  HR (beats/min): 308 ± 4 beats/min
  MAP (mmHg): 61 ± 4 mmHg
[5]
  HR (beats/min): 309 ± 5 beats/min
  MAP (mmHg): 65 ± 2 mmHg
[6]
  HR (beats/min): 309 ± 5 beats/min
  MAP (mmHg): 67 ± 2 mmHg
[7]
  HR (beats/min): 383 ± 11 beats/min
  MAP (mmHg): 92 ± 2 mmHg
[8]
  HR (beats/min): 308 ± 5 beats/min
  MAP (mmHg): 94 ± 4 mmHg
[9]
  HR (beats/min): 309 ± 3 beats/min
  MAP (mmHg): 75 ± 6 mmHg
[10]
  HR (beats/min): 303 ± 3 beats/min
  MAP (mmHg): 59 ± 3 mmHg
[11]
  HR (beats/min): 296 ± 7 beats/min
  MAP (mmHg): 68 ± 2 mmHg
[12]
  HR (beats/min): 297 ± 6 beats/min
  MAP (mmHg): 73 ± 2 mmHg
[13]
  maximal change in HR: −21%
  maximal change in MAP: −37%

## Oc1ccc2c(c1)C(Cc1c[nH]cn1)CC2 (stereo not shown) [MPV-2426 Al, 3-(1H-imidazol-4-ylmethyl)-indan-5-ol]
[14]
  HR (beats/min): 373 ± 8 beats/min
  MAP (mmHg): 97 ± 4 mmHg
[15]
  HR (beats/min): 324 ± 9 beats/min
  MAP (mmHg): 114 ± 3 mmHg
[16]
  HR (beats/min): 321 ± 9 beats/min
  MAP (mmHg): 112 ± 3 mmHg
[17]
  HR (beats/min): 327 ± 7 beats/min
  MAP (mmHg): 83 ± 4 mmHg
[18]
  HR (beats/min): 319 ± 9 beats/min
  MAP (mmHg): 84 ± 4 mmHg
[19]
  HR (beats/min): 317 ± 9 beats/min
  MAP (mmHg): 80 ± 3 mmHg
[1]
  HR (beats/min): 366 ± 11 beats/min
  MAP (mmHg): 94 ± 5 mmHg
[2]
  HR (beats/min): 309 ± 7 beats/min
  MAP (mmHg): 123 ± 9 mmHg
[3]
  HR (beats/min): 311 ± 4 beats/min
  MAP (mmHg): 117 ± 12 mmHg
[4]
  HR (beats/min): 321 ± 4 beats/min
  MAP (mmHg): 88 ± 4 mmHg
[5]
  HR (beats/min): 321 ± 6 beats/min
  MAP (mmHg): 83 ± 5 mmHg
[6]
  HR (beats/min): 305 ± 6 beats/min
  MAP (mmHg): 77 ± 3 mmHg
[20]
  maximal change in HR: −19%
  maximal change in MAP: +31%

Reference: patent US8470862B2, “Treatment or prevention of hypotension and shock” (Recro Pharma, Inc., priority 1999, dated 2013)
